Patent publication US20240254139A1, “FUSED ISOXAZOLYL COMPOUNDS AS KAT6A INHIBITORS” (Aurigene Oncology Limited, priority 2021, published 2024)

Molecular target: T1, human-KAT6A (MYST domain 507-778 aa) (Homo sapiens, UniProt Q92794)
T1 construct: human-KAT6A (MYST domain 507-778 aa)
Test: KAT6A biochemical assay (TR-FRET)
Conditions: for IC50: dose-response, sigmoidal curve fit, groups A, B, C; for inhibition at 1 µM: compound at 1 μM, percent inhibition of internal assay controls
From the text: A TR-FRET based method was used for assaying compounds of the invention for KAT6A enzyme inhibitory activity. TR-FRET is homogeneous proximity assay where Europium-labelled anti-acetyl lysine antibody binds to the acetylated substrate labelled with biotin which in turn binds to streptavidin labelled APC fluorescence acceptor. Europium can transfer energy to APC in the complex and the interaction of two dye-labelled binding partners is detected by the energy transfer between a donor and an acceptor dye, and the subsequent light emission by the acceptor dye. KAT6A transfer an acetyl group from acetyl CoA to lysine amino acids of histones/target proteins. Typically, 5 μL of human-KAT6A (MYST domain 507-778 aa) in assay buffer (100 mM Tris HCl (pH 7.8), 15 mM NaCl, 1 mM EDTA, 0.01% Tween-20, 0.02% BSA, 1 mM DTT) is added to a 384-well plate containing 5 μL of selected test compound in final 1% DMSO, serially diluted in 1:3 in an 8-10-point titration. The selected compound of the present invention and enzyme are incubated for 30 min at room temperature. Next, 5 μL of substrate mix containing histone H4 peptide and acetyl-CoA in assay buffer is added to the plate. The final concentrations of H4 peptide and acetyl-CoA are 200 nM and 600 nM respectively. Following 30 min reaction at room temperature, 5 μL of detection mix containing Europium labelled anti-acetyl antibody and streptavidin-APC is added to the reaction wells. Plate is further incubated for 45 min at room temperature and is read in TR-FRET mode (Ex: 340 nm; Em: 615 nm and 665 nm) on a plate reader.
Selected compounds of the present invention were screened in the above-mentioned assay procedure and IC50 values were determined by fitting the dose-response data to sigmoidal curve fitting equation using Graph pad prism software V8. […]

T1 sequence (Q92794 507-778): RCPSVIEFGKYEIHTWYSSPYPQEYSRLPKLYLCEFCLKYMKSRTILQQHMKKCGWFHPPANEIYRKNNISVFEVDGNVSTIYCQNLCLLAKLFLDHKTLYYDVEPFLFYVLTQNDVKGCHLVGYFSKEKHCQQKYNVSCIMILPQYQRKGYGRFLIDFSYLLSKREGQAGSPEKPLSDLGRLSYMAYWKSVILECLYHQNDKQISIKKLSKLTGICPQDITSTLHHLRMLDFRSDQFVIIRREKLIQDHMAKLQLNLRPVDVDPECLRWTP

Structure (SMILES)	inhibition at 10 µM (compound at 10 μM (stated in the cell), read-out: Percent Inhibition (at 10 μM)) [%]	IC50 [nM]	inhibition at 1 µM [%]
COc1cccc(OC)c1S(=O)(=O)Nc1noc2nc(Cn3cccn3)cc(OC)c12 [Compound 35, N-(6-((1H-pyrazol-1-yl)methyl)-4-methoxyisoxazolo[5,4-b]pyridin-3-yl)-2,6-dimethoxybenzenesulfonamide]		> 200	
CCNc1cc(OC)c2c(NS(=O)(=O)c3c(OC)cccc3OC)noc2n1 [Compound 38, N-(6-(ethylamino)-4-methoxyisoxazolo[5,4-b]pyridin-3-yl)-2,6-dimethoxybenzenesulfonamide]			95

Further lines, results first:

inhibition at 10 µM (compound at 10 μM (stated in the cell), read-out: Percent Inhibition (at 10 μM)) [%]	IC50 [nM]	inhibition at 1 µM [%]	Structure (SMILES)
100	> 200		COc1cc(C(C)(C)C)ccc1S(=O)(=O)Nc1noc2nc(-c3ccccc3)cc(OC)c12 [Compound 34, 4-(tert-butyl)-2-methoxy-N-(4-methoxy-6-phenylisoxazolo[5,4-b]pyridin-3-yl)benzenesulfonamide]
		0	COc1cccc(OC)c1S(=O)(=O)N(C)c1noc2nc(-c3ccccc3)cc(OC)c12 [Compound 36, 2,6-dimethoxy-N-(4-methoxy-6-phenylisoxazolo[5,4-b]pyridin-3-yl)-N-methylbenzenesulfonamide]
		34	CNc1cc(OC)c2c(NS(=O)(=O)c3c(OC)cccc3OC)noc2n1 [Compound 37, 2,6-dimethoxy-N-(4-methoxy-6-(methylamino)isoxazolo[5,4-b]pyridin-3-yl)benzenesulfonamide]
